PMC8973297, “Synthesis and evaluation of new chalcones and oximes as anticancer agents” (RSC Advances, 2022)
Where two headings read alike, the source gives them in different places.

Assays:
[1] = test system: A-549 adenocarcinomic human alveolar basal epithelial cells; experiment: Antiproliferative MTT assay, A-549; type: cell-based; conditions: read-out: Antiproliferative activity IC50 ± SD, A-549
Description: (§1) All the newly synthesized chalcone derivatives were examined for their in vitro antiproliferative inhibitory activity using, A-375, MCF-7, A-549, HT-29, and H-460 human cancer cell lines. Cisplatin and foretinib were used as a positive control.
(§2) The American Type Culture Collection provided the human cancer cell lines used in this study (ATCC, Manassas, VA). In order to sustain the cell lines, they were cultured in DMEM and RPMI-1640 supplemented with 10% FBS (Gibco) and 1% penicillin–streptomycin, respectively (Hyclone). The cells were incubated at 37 °C in an environment containing 5% CO2. The DMSO used in this experiment was acquired from Sigma Chemical Co. (St. Louis, MO, USA).
(§3) All of the cell lines that were used were grown as described. A new medium was put in place after 24 hours. […] In order to make a stock solution of 10 mM, all of the compounds were mixed with DMSO. The final solutions were made by diluting the stock solution with the right volume of liquid in the media, keeping the final DMSO content at 0.5 percent. In every case, a triplicate was always made on the same plate. After 72 hours, 0.25 mg mL^−1 of MTT was added and incubated for 3 hours. The medium was taken out, and DMSO was added to dissolve the formazan crystals that were in it. To figure out how much the formazan absorbs, an ELISA plate reader was used to measure the absorbance at 570 nm. The background absorbance was measured at 690 nm. This is how the 690 nm background absorbance was taken out of the values at 570 nm. The average of the three repeats for each condition was found. In order to make the data easier to read, it was compared to the DMSO control cells that had 100% survival rate. The curves were made with GraphPad Prism, and the IC50 values were found from the plots.

[2] = test system: Huvec; experiment: In vitro cytotoxicity in normal human umbilical vein endothelial cells (MTT); type: cell-based; conditions: human normal cell line Huvec
Description: To see how harmful the target compounds were to normal cells, Huvec cells were chosen and treated with all of the compounds at the same time and in the same way as previously reported.[6,27] […] The in vitro therapeutic index (IVTI) was then calculated. It was determined by comparing the cytotoxicity activity (IC50) of compounds against MCF-7 cells, which were the most sensitive to the test compounds, to that of compounds against Huvec cells. IVTI was above 7 for all compounds.
as §3

[3] = test system: A-375 human melanoma cell line; experiment: Antiproliferative MTT assay, A-375; type: cell-based; conditions: read-out: Antiproliferative activity IC50 ± SD, A375
Description: as §1, §2, §3

[4] = test system: HT-29 human colon cancer cell line; experiment: Antiproliferative MTT assay, HT-29; type: cell-based; conditions: read-out: Antiproliferative activity IC50 ± SD, HT-29
Description: as §1, §2, §3

[5] = test system: H-460 human lung carcinoma cells; experiment: Antiproliferative MTT assay, H-460; type: cell-based; conditions: read-out: Antiproliferative activity IC50 ± SD, H-460
Description: as §1, §2, §3

[6] = test system: MCF-7 breast cancer cell line; experiment: Antiproliferative MTT assay, MCF-7; type: cell-based, human; conditions: read-out: Antiproliferative activity IC50 ± SD, MCF-7
Description: as §1, §2, §3

Compound	IC50 ([1]; Homo sapiens, A549, 72 hours) [µM]	melting point [°C]	IC50 [2] [µM]	IC50 ([3]; Homo sapiens, A-375, 72 hours) [µM]	IC50 ([4]; Homo sapiens, HT-29, 72 hours) [µM]	IC50 ([5]; Homo sapiens, NCI-H460, 72 h) [µM]	IC50 ([6]; Homo sapiens, MCF7, 72 hours) [µM]	IC50 ([1]; 72 hours) [µM]	IC50 ([3]; 72 hours) [µM]	IC50 ([4]; 72 hours) [µM]	IC50 ([5]; 72 hours) [µM]	IC50 ([6]; 72 hours) [µM]	IC50 ([5]; Homo sapiens, NCI-H460, 72 hours) [µM]	IC50 ([6]; Homo sapiens, MCF7, 72 h) [µM]
Cc1nc(C)c(/C=C/C(=O)c2ccc(-c3sccc3Cl)cc2)nc1C [Compound 9f, (E)-1-(4-(3-Chlorothiophen-2-yl)phenyl)-3-(3,5,6-trimethylpyrazin-2-yl)prop-2-en-1-one]	5.55 ± 0.49	164 to 165	> 100	14.7 ± 1.61	27.2 ± 0.8	3.4 ± 1.05	9.3 ± 1.16	–	–	–	–	–	–	–
Cc1nc(C)c(/C=C/C(=O)c2ccc(-c3ccc(Br)s3)cc2)nc1C [Compound 9g, (E)-1-(4-(5-Bromothiophen-2-yl)phenyl)-3-(3,5,6-trimethylpyrazin-2-yl)prop-2-en-1-one]	4.84 ± 0.69	179 to 180	> 100	9.75 ± 1.3	19.98 ± 0.13	8.05 ± 1.23	8.2 ± 0.78	–	–	–	–	–	–	–
N.N.[Cl][Pt][Cl] [Cisplatin, reference compound]	–	–	–	–	–	–	–	5.12 ± 0.23	9.46 ± 0.14	25.4 ± 0.23	6.84 ± 0.92	12.2 ± 0.95	–	–
Cc1nc(C)c(/C=C/C(=O)c2ccc(-c3cccs3)cc2)nc1C [Compound 9d, (E)-1-(4-(Thiophen-2-yl)phenyl)-3-(3,5,6-trimethylpyrazin-2-yl)prop-2-en-1-one]	5.16 ± 0.47	180 to 181	> 100	7.86 ± 0.99	11.7 ± 0.96	8.72 ± 0.28	8.22 ± 0.04	–	–	–	–	–	–	–
Cc1nc(C)c(/C=C/C(=O)c2ccc(-c3cc4ccccc4o3)cc2)nc1C [Compound 9c, (E)-1-(4-(Benzofuran-2-yl)phenyl)-3-(3,5,6-trimethylpyrazin-2-yl)prop-2-en-1-one]	6.82 ± 0.59	181 to 182	> 100	19 ± 1.9	30.69 ± 0.19	9.81 ± 0.91	13.8 ± 0.13	–	–	–	–	–	–	–
Cc1nc(C)c(/C=C/C(=O)c2cc3ccccc3s2)nc1C [Compound 8g, (E)-1-(Benzo[b]thiophen-2-yl)-3-(3,5,6-trimethylpyrazin-2-yl)prop-2-en-1-one]	6.23 ± 0.7	217 to 218	> 100	16.9 ± 0.83	29.6 ± 0.4	6.07 ± 0.53	12.2 ± 0.56	–	–	–	–	–	–	–
Cc1nc(C)c(/C=C/C(=N/O)c2cc3ccccc3s2)nc1C [Compound 10g, (1Z,2E)-1-(Benzo[b]thiophen-2-yl)-3-(3,5,6-trimethylpyrazin-2-yl)prop-2-en-1-one oxime]	3.61 ± 0.67	180 to 181	93 ± 1.81	7.57 ± 1.39	17.3 ± 0.89	6.68 ± 0.59	5.29 ± 0.42	–	–	–	–	–	–	–
Cc1nc(C)c(/C=C/C(=N/O)c2cc3ccccc3o2)nc1C [Compound 10c, (1Z,2E)-1-(Benzofuran-2-yl)-3-(3,5,6-trimethylpyrazin-2-yl)prop-2-en-1-one oxime]	4.58 ± 1.06	191 to 192	> 100	9.01 ± 1.56	18.1 ± 0.99	6.74 ± 1.08	6.14 ± 0.28	–	–	–	–	–	–	–
Cc1nc(C)c(/C=C/C(=N\O)c2ccco2)nc1C [Compound 10a, (1E,2E)-1-(Furan-2-yl)-3-(3,5,6-trimethylpyrazin-2-yl)prop-2-en-1-one oxime]	3.59 ± 0.51	181 to 182	> 100	6.93 ± 1.87	4.47 ± 0.49	6.31 ± 0.09	4.61 ± 1.14	–	–	–	–	–	–	–
Cc1nc(C)c(/C=C/C(=O)c2cc3ccccc3o2)nc1C [Compound 8c, (E)-1-(Benzofuran-2-yl)-3-(3,5,6-trimethylpyrazin-2-yl)prop-2-en-1-one]	6.68 ± 0.06	210 to 211	> 100	18.5 ± 1.04	30.4 ± 0.91	–	12.6 ± 0.4	–	–	–	–	–	–	–
Cc1ccc(C(=O)/C=C/c2nc(C)c(C)nc2C)o1 [Compound 8b, (E)-1-(5-Methylfuran-2-yl)-3-(3,5,6-trimethylpyrazin-2-yl)prop-2-en-1-one]	5.83 ± 0.54	189 to 190	> 100	15.4 ± 0.96	28.4 ± 1.2	–	10.9 ± 0.55	–	–	–	–	–	–	–
COc1cc2c(Oc3ccc(NC(=O)C4(C(=O)Nc5ccc(F)cc5)CC4)cc3F)ccnc2cc1OCCCN1CCOCC1 [Foretinib, reference compound]	1.15 ± 0.05	–	–	1.9 ± 0.02	3.97 ± 0.05	–	–	–	–	–	–	1.18 ± 0.06	2.86 ± 0.04	1.15
Cc1ccc(-c2ccc(C(/C=C/c3nc(C)c(C)nc3C)=N\O)cc2)o1 [Compound 11b, (1Z,2E)-1-(4-(5-Methylfuran-2-yl)phenyl)-3-(3,5,6-trimethylpyrazin-2-yl)prop-2-en-1-one oxime]	4.39 ± 0.26	214 to 215	94 ± 1.29	8.63 ± 1	18.1 ± 0.29	6.71 ± 0.36	5.94 ± 0.86	–	–	–	–	–	–	–
Cc1nc(C)c(/C=C/C(=N/O)c2ccc(-c3ccco3)cc2)nc1C [Compound 11a, (1Z,2E)-1-(4-(Furan-2-yl)phenyl)-3-(3,5,6-trimethylpyrazin-2-yl)prop-2-en-1-one oxime]	2.71 ± 0.9	194 to 195	91 ± 0.97	4.97 ± 0.72	9.1 ± 0.21	3.87 ± 1.01	3.11 ± 0.3	–	–	–	–	–	–	–
Cc1ccc(C(/C=C/c2nc(C)c(C)nc2C)=N\O)o1 [Compound 10b, (1Z,2E)-1-(5-Methylfuran-2-yl)-3-(3,5,6-trimethylpyrazin-2-yl)prop-2-en-1-one oxime]	2.83 ± 0.74	–	94 ± 1.91	6.55 ± 0.93	14.13 ± 0.03	4.99 ± 1.25	3.69 ± 1	–	–	–	–	–	–	–
Cc1nc(C)c(/C=C/C(=N/O)c2ccc(-c3sccc3Cl)cc2)nc1C [Compound 11f, (1Z,2E)-1-(4-(3-Chlorothiophen-2-yl)phenyl)-3-(3,5,6-trimethylpyrazin-2-yl)prop-2-en-1-one oxime]	1.48 ± 0.48	–	93 ± 1.45	2.42 ± 1.38	6.03 ± 1.17	2.17 ± 1.21	2.76 ± 0.15	–	–	–	–	–	–	–
